This note sets out measurements from article PMC6085299 (Nature Communications, 2018).

In experiment [1] the target is Pin1 (Homo sapiens, UniProt Q13526, M130I). Put plainly: PPIase assay (Supplementary Fig. 2e). In kind it is biochemical.
Experiment [2] has as its target T1, Pin1 (Homo sapiens, UniProt Q13526).
T1 construct: recombinant Pin1
Nature of the experiment: biotin-ATO pulldown with immunoblot, dose-dependent, competed by ATO. Format: binding.

Take `O=[As]O[As]=O` (centres unmarked) [ATO, Arsenic trioxide]: the “PPIase assay (Supplementary Fig. 2e)” value at Pin1 [1] was “ATO dose-dependently inhibited the PPIase activity of Pin1 M130I, but not Pin1 M130V mutant”.
On to biotin-ATO, for which the Kd – broadly, the equilibrium constant for the complex coming apart – at Pin1 [2] was found to be 238 nM.
